According to patent US20240122816A1, “ARTICLES FOR INDIRECT TRANSFER OF COSMETIC ACTIVES TO SKIN” (SYMRISE AG, priority 2019, published 2024):

Test: Analysis of the bisabolol content on the skin (GC/MS of alcohol-pad extract) after transfer from laundered clothing article
Type: in vivo, human
From the text: Protocol: • One cotton sock from the laundry described previously was inverted to expose the inner surface. • Left arm of a subject was washed with unfragranced soap followed by 95% alcohol wipe to remove any foreign material and soluble oils. • Rubbed previously laundered cotton sock with Symrelief onto subject's […]. Seven times on one side then 8 times on the other sock surface.
(§1) Protocol: • Applied 3 commercially available alcohol pads (which had been soaked in 95% ethanol) onto arm area. Allowed to dry completely. • The alcohol wipe pads were transferred into 1 oz glass jar and added 5 grams diethylether and allowed to extract for 2 hours. • Ether extract was concentrated to 100 μl under a nitrogen stream. • 2.5 μl was manually injected into a GC/MS equipt with a carbowax column and run with a splitless method. • Bisabolol peak was identified in the sample by the characteristic ions in the mass spectrum. • The control arm was treated in the same manner with no identified bisabolol.
Protocol: • One of a pair of cotton/poly socks from the laundry described previously was given to a test subject removed and blind codded. The sock was paired with a blind codded sock that was un-laundered. • The ventral surface of the subjects ankles were washed with unfragranced soap followed by 95% alcohol wipe to remove any foreign material and soluble oils. • The pair of socks were worn by a test subject for 8 hours in a normal use setting.
as §1, with “•” for “Protocol: •”, “12” for “3”, “bisabolol. […]” for “bisabolol.”

Measured: Bisabolol peak in skin wipe extract (GC/MS, characteristic ions)

CC(C)=CCC[C@](C)(O)C1CC=C(C)CC1 (stereo partly drawn) [Bisabolol, bisabolol]
identified: laundered cotton sock (softener with 5% Symcap G1 Bisabolol slurry) rubbed onto subject's arm, 7 and 8 times, 3 alcohol pads | laundered cotton/poly sock worn for 8 hours in normal use, 12 alcohol pads | laundered thermal shirt worn for 8 hours in normal use, upper arms, 12 alcohol pads
